{"source": "patent US20230149383A1", "about": "“QUINOLINE COMPOUNDS FOR TREATING LUNG, LIVER, AND KIDNEY DISEASES, DISORDERS, OR CONDITIONS” (Aldeyra Therapeutics, Inc., priority 2020, published 2023)", "origin": "cited, not measured here", "key": {"[1]": {"tested_on": "minimal change disease", "details": "Hogan et al. 2013; cited from earlier work"}, "[2]": {"tested_on": "ocular inflammation", "details": "Phase 2 and Phase 3 clinical trials; cited from earlier work"}, "[3]": {"tested_on": "precision-cut liver slices (PCLS)", "details": "addition of 4-methylpyrazole; cited from earlier work"}}}
{"smiles": "C[C@]12C=CC(=O)C=C1CC[C@@H]1[C@@H]2[C@@H](O)C[C@@]2(C)[C@H]1CC[C@]2(O)C(=O)CO", "note": "[prednisolone]", "values": [{"measurement": "complete remission, share of adults with minimal change disease", "setting": "[1]", "result": "over 80%"}]}
{"smiles": "CC(C)(O)c1nc2ccc(Cl)cc2cc1N", "note": "[reproxalap]", "values": [{"measurement": "benefit in ocular inflammation, including dry eye disease and allergic conjunctivitis", "setting": "[2]", "result": "beneficial"}]}
{"smiles": "Cc1cn[nH]c1", "note": "[4-methylpyrazole]", "values": [{"measurement": "ethanol-induced impairments (fatty liver, redox state, albumin secretion)", "setting": "[3]", "result": "reversed"}]}
